Here are results for 6 compounds from US7960339B2, “Antimicrobial peptides” (Österreichische Akademie der Wissenschaften, priority 2006, dated 2011).

Read-outs that look alike come from different tables or passages of the source. Ends that are not written are not given here. Peptide text beside a SMILES is read from it. * marks the point of attachment. Octanoyl(6-Me) = CCC(C)CCCCC(=O)*

The test system of one test is LPS S. Minnesota Re595. Briefly: Endpoint LAL activity (Limulus gel-clotting test), inhibition of lipid A-induced LAL enzymatic cascade. It is filed as biochemical. As to conditions: sensibility 0.125 EU/ml, peptide:LPS 100:1 (w/w), minimum of 6 tests in triplicate. The method, then:
(§1) The principle of lipid A-induced pro-inflammatory cytokine activity leading to hemorrhagic dermonecrosis (classical Shwartzmann reaction) was tested in rabbit, an animal model very close to humans in terms of sensitivity to LPS activity, and was compared to the inhibition of the lipid A-induced LAL enzymatic cascade activation leading to clot. Thereby, New Zealand White rabbits were injected in the shaved dorsal region with S. minnesota Re595 lipid A alone or with peptide 1:100 (w/w) (5 μg in 0.2 ml saline buffer; route i.d.). […] Polymyxin B (PmB) was used as a control.

A further test concerns LPS Re595. Briefly: Local Shwartzmann reaction in rabbit (lipid A-induced hemorrhagic dermonecrosis). The test is classed as in vivo, New Zealand White rabbits. To be noted: i.d. injection in shaved dorsal region; open necrosis observed after 72-96 hours; minimum 3 injections in minimum 3 rabbits. The method, then: as §1
Another test relates to MonoMac6 cells. The experiment in a line: Release of TNFα from MonoMac6 cells stimulated by bacteria killed with antibiotics or peptides (ELISA). The test is classed as cell-based. To be noted: E. coli strain 0:111 incubated over night with agent, then 15 hours on 10^5 MonoMac6 cells; FIG. 5. The method, then:
Bacteria can be killed by different antibiotics, targeting different molecules essential for bacterial survival. When Gram-negative bacteria are killed, released LPS can stimulate production of cytokines, such as TNFα, or other inflammatory mediators. Comparison of well-established antimicrobial agents acting through different cellular targets with compounds of this invention were done in the following manner: bacteria (E. coli strain 0:111) were grown in LB medium to the absorbance at 600 nm of 0.4 and diluted 2500 fold in RPMI medium with added glucose. Different concentrations of antibiotics or peptides from this invention were added and incubated over night. 80 μl of cell suspension was added to the 100 μl containing 10^5 MonoMac6 cells and after 15 hours the release of TNFα to the medium was determined using ELISA test.
In general terms: An ELISA detects its analyte on a solid surface through an enzyme-linked reagent.

Another test has as its system C. neoformans ATCC 32045. It is filed as cell-based. The procedure, abridged: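 Fungal inoculum was about 1×10^5 to 5×10^5 CFU/ml in 2×YM broth, added to peptides dispensed at 1 mg/ml to 1 μg/ml in twofold serial dilutions. After 72 hrs at 26° C, relative growth was read as OD620. IC50 values came from sigmoidal curve fitting.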
For the next test, the system named is E. coli (strain 0:111). The experiment in a line: Antimicrobial assay with peptide immobilized on magnetic particles. The test is classed as cell-based. To be noted: over night. The method, then:
Peptide P2-32 (500 μg) was covalently bound to the cyanuric chloride-activated magnetic particles (10 mg) (Chemicell, Product number 1314) using phosphate buffer saline pH=7.5. After mixing the suspension on a shaker for 2 hours at room temperature the blocking buffer (PBS pH=7.5 and 2% ethanolamine) were added and mixed the suspension on a shaker for 30 minutes at room temperatures. The particles were washed twice with PBS. Immobilized peptides were tested against E. coli (strain 0:111) grown in LB medium to the absorbance at 600 nm of 0.4 and diluted 2500 fold in LB medium. Different concentrations of magnetic particles immobilized with peptides were added and incubated over night.

For the next test, the system named is E. coli LPS. Briefly: Mouse model of acute endotoxemia (LPS plus galactosamine). It is filed as in vivo, ICR-CD1 mice. As to conditions: 150 μg intraperitoneal immediately after 0.3 μg E. coli LPS + 18 mg galactosamine; monitored until 168 hours. The method, then:
Mice are remarkably resistant to LPS-mediated septic shock. However, the sensitivity of mice to endotoxin can be potentiated by coinjecting LPS with galactosamine. Groups of 16-18 female ICR-CD1 mice of 20-25 g of weight were intraperitoneally injected with 200 μl of pyrogen-free saline containing a mixture of 0.3 μg of E. coli LPS and 18 mg of galactosamine. Previous experiments allowed to determine that such a combination was lethal for 90% (LD90) of the animals 48 h after the injection. Immediately after this challenge, mice received a second intraperitoneal injection at a different site of the abdomen containing 150 μg of the peptide dissolved in 150 μl of 10% DMF pyrogen-free saline. In all the experiments a group of mice was left untreated whereas another group received 150 μg of polymyxin B. Mortality of the animals was monitored at daily intervals until 168 hours postchallenge.

`CC[C@H](C)[C@H](NC(=O)[C@H](CCCNC(=N)N)NC(=O)[C@@H](NC(=O)[C@H](CCCNC(=N)N)NC(=O)[C@H](Cc1c[nH]c2ccccc12)NC(=O)[C@H](Cc1ccccc1)NC(=O)[C@@H]1CCCN1)[C@@H](C)CC)C(=O)N[C@@H](CCCNC(=N)N)C(=O)N[C@@H](CCCNC(=N)N)C(N)=O` [VS1-22, PFWRIRIRR-NH2] (H-PFWRIRIRR-NH2; N-terminus assumed): the “Endpoint LAL activity peptide: LPS Re595 100:1 (w/w)” value in the test with LPS S. Minnesota Re595 is on record as “NEGATIVE”. Besides, in the test with LPS Re595, the “Local Shwartzmann reaction in rabbit peptide: LPS Re595 100:1 (w/w)” value is “NEGATIVE”. For the same compound, the “release of TNFα / stimulation of the monocytes” value with MonoMac6 cells is given as “significantly inhibited the release of TNFα”. In addition, in the test on C. neoformans ATCC 32045 (50% growth inhibition, OD620, 72 hrs at 26° C., 2×YM broth), the “average IC50” value was determined as 2 µg/mL. The “average MIC” value in the test on C. neoformans ATCC 32045 (lowest concentration that resulted in 2% growth, OD620, 72 hrs at 26° C., 2×YM broth) came out at 8 µg/mL.
In the case of `CCC(C)CCCCC(=O)N1CCC[C@H]1C(=O)N[C@@H](Cc1ccccc1)C(=O)N[C@@H](Cc1c[nH]c2ccccc12)C(=O)N[C@@H](CCCNC(=N)N)C(=O)N[C@H](C(=O)N[C@@H](CCCNC(=N)N)C(=O)N[C@H](C(=O)N[C@@H](CCCNC(=N)N)C(=O)N[C@@H](CCCNC(=N)N)C(N)=O)[C@@H](C)CC)[C@@H](C)CC` (some centres unmarked) [VS1-53, 6-methyloctanoyl PFWRIRIRR-NH2] ({Octanoyl(6-Me)}-PFWRIRIRR-NH2), the “release of TNFα / stimulation of the monocytes” value in the test on MonoMac6 cells is listed as “significantly inhibited the release of TNFα”. In addition, in the test on C. neoformans ATCC 32045 (ATCC 32045, 72 h), the “average IC50” value worked out at 6 µg/mL and the “average MIC” value was determined as 16 µg/mL.
With `O=C(N[C@H](CO)[C@H](O)c1ccc([N+](=O)[O-])cc1)C(Cl)Cl` [chloramphenicol], the “release of TNFα / stimulation of the monocytes” value with MonoMac6 cells is on record as “high stimulation of the monocytes”.
Consider “FIWRWRWR-NH2 (also: bound to magnetic particles) [Peptide P2-32]”, for which the bacterial growth result in the test with E. coli (strain 0:111) (0.25 mg immobilized magnetic particles, 100 μl diluted E. coli in LB) is “not-inhibited”; with E. coli (strain 0:111) (0.5 mg immobilized magnetic particles, 100 μl diluted E. coli in LB) it was “not-inhibited”; with E. coli (strain 0:111) (1 mg immobilized magnetic particles, 100 μl diluted E. coli in LB), “inhibited”; with E. coli (strain 0:111) (2.5 mg immobilized magnetic particles, 100 μl diluted E. coli in LB), “inhibited”; with E. coli (strain 0:111) (5 mg immobilized magnetic particles, 100 μl diluted E. coli in LB) it was “inhibited”; in the test on E. coli (strain 0:111) (50, 25 and 10 mg/ml concentrations of immobilized magnetic particles), “prevented bacterial growth”.
With penicilin, the “release of TNFα / stimulation of the monocytes” value in the test with MonoMac6 cells is listed as “high stimulation of the monocytes”.
With polymyxin B [PmB, reference compound], the “Endpoint LAL activity peptide: LPS Re595 100:1 (w/w)” value with LPS S. Minnesota Re595 is “NEGATIVE”. Besides, in the test with E. coli LPS, the “protection against endotoxic shock (mortality)” value is recorded as “did not confer significant protection”. Besides, the “Local Shwartzmann reaction in rabbit peptide: LPS Re595 100:1 (w/w)” value in the test on LPS Re595 is “NEGATIVE”. Besides, the “release of TNFα / stimulation of the monocytes” value with MonoMac6 cells was “significantly inhibited the release of TNFα”.
